# Legend:
# TIE-2 = TIE-2 (Homo sapiens, UniProt Q02763); assay: Tie-2 kinase flashplate assay (phosphorylation of poly(Glu, Tyr) with 33P-ATP); type: biochemical; settings: read-out: Inhibition of TIE-2 IC50
# Method: The TIE-2 tests can be carried out, for example, analogously to the methods indicated in WO 02/44156.
# The assay determines the inhibiting activity of the substances to be tested in the phosphorylation of the substrate poly(Glu, Tyr) by Tie-2 kinase in the presence of radioactive ^33P-ATP. The phosphorylated substrate binds to the surface of a “flashplate” microtitre plate during the incubation time. After removal of the reaction mixture, the microtitre plate is washed a number of times and the radioactivity on its surface is subsequently measured. An inhibiting effect of the substances to be measured results in lower radioactivity compared with an undisturbed enzymatic reaction.
# RAF = assay: Inhibition of RAF; type: biochemical
# Chain of TIE-2 (Q02763 23-1124, species assumed): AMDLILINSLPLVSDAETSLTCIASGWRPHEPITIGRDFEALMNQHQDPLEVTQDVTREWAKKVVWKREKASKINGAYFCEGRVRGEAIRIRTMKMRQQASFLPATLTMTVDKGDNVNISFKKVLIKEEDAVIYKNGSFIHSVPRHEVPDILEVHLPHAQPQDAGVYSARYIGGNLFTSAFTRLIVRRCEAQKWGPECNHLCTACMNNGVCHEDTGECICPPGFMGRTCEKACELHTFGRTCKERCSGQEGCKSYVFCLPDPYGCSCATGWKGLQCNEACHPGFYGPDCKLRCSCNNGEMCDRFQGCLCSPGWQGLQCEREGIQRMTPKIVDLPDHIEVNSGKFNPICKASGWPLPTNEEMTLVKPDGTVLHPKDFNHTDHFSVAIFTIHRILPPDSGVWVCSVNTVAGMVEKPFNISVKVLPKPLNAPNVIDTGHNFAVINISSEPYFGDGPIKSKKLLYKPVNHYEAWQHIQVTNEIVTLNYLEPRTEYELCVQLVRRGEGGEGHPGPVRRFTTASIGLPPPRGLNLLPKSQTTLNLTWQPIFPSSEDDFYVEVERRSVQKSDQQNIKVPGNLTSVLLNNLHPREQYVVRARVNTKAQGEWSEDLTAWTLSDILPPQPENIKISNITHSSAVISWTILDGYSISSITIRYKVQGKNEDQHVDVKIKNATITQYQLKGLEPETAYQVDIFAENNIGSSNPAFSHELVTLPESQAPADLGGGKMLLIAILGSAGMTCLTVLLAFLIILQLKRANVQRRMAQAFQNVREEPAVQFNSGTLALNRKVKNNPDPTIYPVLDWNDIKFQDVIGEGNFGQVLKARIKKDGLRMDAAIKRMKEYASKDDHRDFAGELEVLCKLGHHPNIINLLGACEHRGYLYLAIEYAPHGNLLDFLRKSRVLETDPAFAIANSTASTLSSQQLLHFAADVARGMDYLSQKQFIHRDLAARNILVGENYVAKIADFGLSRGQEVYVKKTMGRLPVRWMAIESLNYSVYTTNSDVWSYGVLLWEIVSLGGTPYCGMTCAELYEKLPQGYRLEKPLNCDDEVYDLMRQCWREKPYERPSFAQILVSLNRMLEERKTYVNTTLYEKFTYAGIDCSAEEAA
Compound,IC50 (RAF),also measured
c1cnn(-c2nc(NCc3ccc4c(c3)OCO4)c3c4c(sc3n2)CCCC4)c1,,IC50 (TIE-2): 0.15 µM
Cc1sc2nc(N3CCOCC3)nc(NCc3ccc4c(c3)OCO4)c2c1C,5.3 µM,
c1cc2c(cc1CNc1nc(N3CCOCC3)nc3sc4c(c13)CCCC4)OCO2,4.3 µM,
"Cc1cc2c(NCc3ccc4c(c3)OCO4)nc(-n3ccnc3)nc2s1 [Example 2, 2-(imidazol-1-yl)-6-methyl-4-(3,4-methylenedioxybenzylamino)thieno[2,3-d]pyrimidine]",,melting point: 248 to 250 °C

# Source: patent publication US20080045529A1, “Use Of Thienopyrimidines” (MERCK PATENT GMBH, priority 2003, published 2008)
